From patent publication US20120101083A1, “S1P1 AGONISTS COMPRISING A BICYCLIC N-CONTAINING RING” (GLAXO GROUP LIMITED, priority 2009, published 2012)
Structures can show the parent of a compound that is named as a salt.

Columns and labels:
[1] = target: T1, S1P1 (PathHunter CHO-K1 EDG1 β-Arrestin cell line) (Homo sapiens, UniProt P21453); assay: S1P-1 β-Arrestin recruitment assay; assay type: cell-based; details: CHO-K1 EDG1 β-Arrestin cells, chemi-luminescence
T1 construct: host or cells: PathHunter CHO-K1 EDG1 β-Arrestin cell line
How it was run: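 CHO-K1 cells expressing S1P1 and β-arrestin 2 fused to complementing β-galactosidase fragments, at 1×10^4 cells/well in pH 7.4 buffer with 0.1% BSA. Compound exposure 90 min at 37 °C then 15 min room temperature; chemiluminescent substrate added for 60 min before luminescence read.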

[2] = target: T2, S1P1 receptor (S1P1 expressing RH7777 membranes) (Homo sapiens, UniProt P21453); assay: S1P1 GTPγS assay; assay type: biochemical; details: tested in one of the above S1P1 assays (two GTPγS formats)
T2 construct: expressed in transfected cells; host or cells: RH7777 cells (membranes)
How it was run: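 Membranes from RH7777 cells expressing human S1P1 (1.5 μg/well) precoupled 30 min on ice to WGA SPA beads in 20 mM HEPES pH 7.4, 10 mM MgCl2, 100 mM NaCl, with 10 μM GDP and 90 μg/ml saponin. [35S]-GTPγS 0.5 nM final added with compound; SPA signal read immediately.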

T1 sequence (P21453 whole entry): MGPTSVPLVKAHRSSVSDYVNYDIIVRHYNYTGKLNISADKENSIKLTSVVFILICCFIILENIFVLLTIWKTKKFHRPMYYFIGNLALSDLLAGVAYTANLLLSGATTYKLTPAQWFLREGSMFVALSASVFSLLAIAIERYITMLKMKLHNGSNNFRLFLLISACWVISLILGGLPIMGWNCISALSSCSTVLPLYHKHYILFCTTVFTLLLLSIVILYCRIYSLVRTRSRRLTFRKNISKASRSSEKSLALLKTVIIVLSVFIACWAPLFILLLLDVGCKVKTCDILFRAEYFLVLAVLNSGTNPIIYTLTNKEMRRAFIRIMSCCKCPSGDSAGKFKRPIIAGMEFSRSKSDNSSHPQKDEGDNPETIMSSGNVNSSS
T1 sequence (P32121 whole entry partner): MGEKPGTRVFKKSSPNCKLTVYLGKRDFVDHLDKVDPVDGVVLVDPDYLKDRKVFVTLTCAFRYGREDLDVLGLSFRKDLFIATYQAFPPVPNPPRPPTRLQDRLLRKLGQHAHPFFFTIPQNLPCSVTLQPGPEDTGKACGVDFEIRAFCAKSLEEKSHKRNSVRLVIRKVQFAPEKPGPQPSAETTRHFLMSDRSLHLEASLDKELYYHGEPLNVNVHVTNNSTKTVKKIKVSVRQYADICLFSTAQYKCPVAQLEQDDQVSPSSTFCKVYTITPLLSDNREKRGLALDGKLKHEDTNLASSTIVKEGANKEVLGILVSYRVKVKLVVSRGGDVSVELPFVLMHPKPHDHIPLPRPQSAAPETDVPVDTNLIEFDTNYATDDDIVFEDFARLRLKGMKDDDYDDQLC
T2 sequence (P21453 whole entry): as the sequence (P21453 whole entry) above

EC50 [1] [nM]	EC50 [2] [nM]	Compound
≤ 10	≤ 100	Cc1c(-c2noc(-c3cnc(OC(C)C)c(C#N)c3)n2)ccc2c1CCN(C(=O)[C@@H](N)[C@@H](C)O)C2 [Example 79, 2-[(1-methylethyl)oxy]-5-[3-(5-methyl-2-L-threonyl-1,2,3,4-tetrahydro-6-isoquinolinyl)-1,2,4-oxadiazol-5-yl]-3-pyridinecarbonitrile hydrochloride]
≤ 10	≤ 10	COC(=O)NCCN1CCc2ccc(-c3noc(-c4ccc(OC(C)C)c(C#N)c4)n3)cc2CC1 [Example 100, methyl {2-[7-(5-{3-cyano-4-[(1-methylethyl)oxy]phenyl}-1,2,4-oxadiazol-3-yl)-1,2,4,5-tetrahydro-3H-3-benzazepin-3-yl]ethyl}carbamate]
≤ 10	≤ 100	CC(C)Oc1ccc(-c2nc(-c3ccc4c(c3)CCN(CCC(N)=O)CC4)no2)cc1C#N [Example 22, 3-[7-(5-{3-Cyano-4-[(1-methylethyl)oxy]phenyl}-1,2,4-oxadiazol-3-yl)-1,2,4,5-tetrahydro-3H-3-benzazepin-3-yl]propanamide]
≤ 100	≤ 1000	CCOc1ncc(-c2nc(-c3ccc4c(c3)CCN(C[C@H](O)CO)CC4)no2)cc1C#N [Example 116, 5-(3-{34[(2S)-2,3-dihydroxypropyl]-2,3,4,5-tetrahydro-1H-3-benzazepin-7-yl}-1,2,4-oxadiazol-5-yl)-2-(ethyloxy)-3-pyridinecarbonitrile]
≤ 10	≤ 100	CNC(=O)CCCN1CCc2c(ccc(-c3noc(-c4ccc(OC(C)C)c(C#N)c4)n3)c2C)C1 [Example 5, 4-[6-(5-{3-Cyano-4-[(1-methylethyl)oxy]phenyl}-1,2,4-oxadiazol-3-yl)-5-methyl-3,4-dihydro-2(1H)-isoquinolinyl]-N-methylbutanamide]
≤ 100	≤ 1000	CC(C)Nc1ncc(-c2nc(-c3ccc4c(c3)CCN(C(=O)CN)CC4)no2)cc1C#N [Example 112, 5-[3-(3-glycyl-2,3,4,5-tetrahydro-1H-3-benzazepin-7-yl)-1,2,4-oxadiazol-5-yl]-2-[(1-methylethyl)amino]-3-pyridinecarbonitrile]
≤ 10	≤ 100	Cc1c(-c2noc(-c3ccc(OC(C)C)c(C#N)c3)n2)ccc2c1CCN(CC(=O)NCCO)CC2 [Example 146, 2-[7-(5-{3-cyano-4-[(1-methylethyl)oxy]phenyl}-1,2,4-oxadiazol-3-yl)-6-methyl-1,2,4,5-tetrahydro-3H-3-benzazepin-3-yl]-N-(2-hydroxyethyl)acetamide]
≤ 100	≤ 100	Cc1c(-c2noc(-c3ccc(OC(C)C)c(C#N)c3)n2)ccc2c1CCN(C[C@@H](O)CO)CC2 [Example 154, 5-(3-{3-[(2R)-2,3-dihydroxypropyl]-6-methyl-2,3,4,5-tetrahydro-1H-3-benzazepin-7-yl}-1,2,4-oxadiazol-5-yl)-2-[(1-methylethyl)oxy]benzonitrile hydrochloride]
≤ 10	≤ 100	Cc1c(-c2noc(-c3ccc(OC(C)C)c(C#N)c3)n2)ccc2c1CCN(C(=O)CN)C2 [Example 42, 5-[3-(2-Glycyl-5-methyl-1,2,3,4-tetrahydro-6-isoquinolinyl)-1,2,4-oxadiazol-5-yl]-2-[(1-methylethyl)oxy]benzonitrile hydrochloride]
≤ 100	≤ 100	N#Cc1cc(-c2nc(-c3ccc4c(c3)CCN(C[C@H](O)CO)CC4)no2)ccc1OCC(F)(F)F [Example 135, 5-(3-{3-[(2S)-2,3-dihydroxypropyl]-2,3,4,5-tetrahydro-1H-3-benzazepin-7-yl}-1,2,4-oxadiazol-5-yl)-2-[(2,2,2-trifluoroethyl)oxy]benzonitrile]
≤ 10	≤ 100	Cc1c(-c2noc(-c3ccc(OC(C)C)c(C#N)c3)n2)ccc2c1CCN(CCCO)C2 [Example 8, 5-{3-[2-(3-Hydroxypropyl)-5-methyl-1,2,3,4-tetrahydro-6-isoquinolinyl]-1,2,4-oxadiazol-5-yl}-2-[(1-methylethyl)oxy]benzonitrile]
